Patent publication US5126258A (priority 1988, dated 1992)

Test system: Monoclonal Receptor 37G2
Test: Kinetics of hydrolysis by receptor 37G2
Format: biochemical, mouse
Text: Reaction kinetics were studied using three reactant ligands as substrates for monoclonal receptors 37G2 and 22F5. Data from initial rates were consistent with Michaelis-Menten reaction mechanism for a usual enzyme-substrate system. Initial rates were followed using at 271 nm using a U.V.-visible spectorphotometer for Compound 17, and a fluorescence spectrometer for Compounds 5 and 20, using an excitation wavelength of 355 nm and an emission wavelength of 455 nm for both compounds.
Lineweaver-Burke plots for the catalyzed hydrolysis of Compounds 17, 5 and 20 obtained in the presence and absence of Compound 12i as inhibitor were prepared as discussed for FIG. 4. In particular, Compound 17 was present at concentrations of 1-16 uM with inhibitor concentrations of 100 and 300 nanomolar (nM). Compound 5 was present at concentrations of 1-10 uM with inhibitor concentrations of 100 and 200 nM. Compound 20 was present at concentrations of 2-20 uM with inhibitor concentrations of 25 and 100 nM. […]
50 mM phosphate buffer at a pH value of 8.0. The reactant ligand was
dissolved in dioxane and admixed in the amounts discussed above. Two
milliliters of reaction solution were utilized as was a dioxane
concentration of 2 percent by volume. Assays with Compound 17 as reac tan
ligand utilized 500 nanomolar receptor (based on a molecular weight of
150,000 daltons) in the above buffer, using the reactant ligand dissolved
in dioxane and a total dioxane concentration of 2 percent by volume.

Km (50 mM phosphate pH 8.0, 500 nM receptor, 2% dioxane, figure = Km × 10^6): 15 µM
kcat (pH 8.0): 0.0016 s⁻¹
Vmax (pH 8.0, 500 nM receptor, figure = Vmax × 10^9): 0.042 µM/min
Structure (SMILES): CC(=O)Nc1ccc(CC(=O)Oc2cccc3ccccc23)cc1 [Compound 17]
